Data on seven compounds can be found in ChEMBL document CHEMBL5584293, “Discovery and evaluation of novel spiroheterocyclic protective agents via a SIRT1 upregulation mechanism in cisplatin-induced premature ovarian failure” (Bioorg Med Chem, 2024).

In general, inhibition refers to the relative decrease from the control value, in per cent.

Activity calls are given as the source filed them. The rule behind the calls is not given here.

Series [1] relates to KGN. The experiment in a line: Protective effect against cisplatin-induced injury in human KGN cells assessed as recovery of cell growth at 1 to 10 uM by inverted microscopy. Type of series: functional, cell-based. The following applies: dose 1-10 µM.
The test system of series [2] is Rattus norvegicus. In words: Protective effect against cisplatin-induced damage in Wistar rat assessed as improvement in ovarian structure at 50 mg/kg, IG qd for 14 days by H and E staining based analysis. To be noted: time 14.0 day. Type of series: functional, organism-based.
Series [3] deals with KGN. The experiment in a line: Protective effect against cisplatin-induced injury in human KGN cells assessed as increase in p-AKT level incubated for 36 hrs by Western blot analysis. Type of series: functional, cell-based. The following applies: dose <= 10.0 µM. (Immunoblotting shows a protein as a band on a membrane.)
The test system of series [4] is KGN. The experiment in a line: Inhibition of cisplatin-induced apoptosis in human KGN cells assessed as increase in Bcl-2 expression at 1 to 10 uM by immunoblot analysis. To be noted: dose 1-10 µM. Type of series: functional, cell-based.
The test system of series [5] is Rattus norvegicus. In words: Protective effect against cisplatin-induced damage in Wistar rat assessed as increase in ovarian weight at 50 mg/kg, IG qd for 14 days. Type of series: functional, organism-based. To be noted: time 14.0 day.
Series [6] deals with KGN. The experiment in a line: Protective effect against cisplatin-induced injury in human KGN cells assessed as increase in cell survival incubated for 48 hrs by MTT assay. Type of series: functional, cell-based. The following applies: dose 1.25-10 µM.
In series [7] the test system is Rattus norvegicus. In words: Protective effect against cisplatin-induced damage in Wistar rat assessed as increase in uterine weight at 50 mg/kg, IG qd for 14 days. Type of series: functional, organism-based. The following applies: time 14.0 day.
For series [8], the system named is KGN. In words: Inhibition of cisplatin-induced apoptosis in human KGN cells at 5 uM incubated for 36 hrs by Annexin V-FITC/PI staining based analysis (reference value: 53.9 %). Type of series: functional.
Series [9] has as its system KGN. The experiment in a line: Inhibition of cisplatin-induced apoptosis in human KGN cells at 1 uM incubated for 36 hrs by Annexin V-FITC/PI staining based analysis (reference value: 53.9 %). Type of series: functional.
The test system of series [10] is KGN. The experiment in a line: Protective effect against cisplatin-induced injury in human KGN cells assessed as recovery of cell numbers at 1 to 10 uM by inverted microscopy. To be noted: dose 1-10 µM. Type of series: functional, cell-based.
The subject of series [11] is Rattus norvegicus. The experiment in a line: Protective effect against cisplatin-induced damage in Wistar rat assessed as increase in serum E2 level at 50 mg/kg, IG qd for 14 days by ELISA. Type of series: functional, organism-based. The following applies: time 14.0 day.
Series [12] deals with KGN. The experiment in a line: Protective effect against cisplatin-induced injury in human KGN cells assessed as recovery of cellular disruption at 1 to 10 uM by inverted microscopy. Type of series: functional, cell-based. The following applies: dose 1-10 µM.
In series [13] the test system is KGN. In words: Protective effect against cisplatin-induced injury in human KGN cells harboring siSIRT1 at 2.5 uM incubated for 36 hrs by Western blot analysis. Type of series: functional, cell-based.
Series [14] concerns Rattus norvegicus. In words: Protective effect against cisplatin-induced damage in Wistar rat assessed as increase in growing follicle numbers in ovaries at 50 mg/kg, IG qd for 14 days by H and E staining based analysis. Type of series: functional, organism-based. To be noted: time 14.0 day.
Series [15] concerns Rattus norvegicus. In words: Protective effect against cisplatin-induced damage in Wistar rat assessed as increase in primordial follicle numbers in ovaries at 50 mg/kg, IG qd for 14 days by H and E staining based analysis. The following applies: time 14.0 day. Type of series: functional, organism-based.
Series [16] has as its system Rattus norvegicus. The experiment in a line: Protective effect against cisplatin-induced damage in Wistar rat assessed as reduction in vascular congestion in ovaries at 50 mg/kg, IG qd for 14 days by H and E staining based analysis. To be noted: time 14.0 day. Type of series: functional, organism-based.
In series [17] the test system is KGN. In words: Protective effect against cisplatin-induced injury in human KGN cells assessed as increase in SIRT1 level incubated for 36 hrs by Western blot analysis. Type of series: functional, cell-based. To be noted: dose <= 10.0 µM.
The test system of series [18] is KGN. The experiment in a line: Inhibition of cisplatin-induced apoptosis in human KGN cells at 10 uM incubated for 36 hrs by Annexin V-FITC/PI staining based analysis (reference value: 53.9 %). Type of series: functional.
Series [19] can be described thus: Toxicity in Wistar rat model of cisplatin-induced damage assessed as body weight loss at 50 mg/kg, IG qd for 7 to 14 days. Type of series: organism-based. To be noted: in vivo, po, time 7-14 day.
Series [20] concerns KGN. In words: Protective effect against cisplatin-induced injury in human KGN cells assessed as cell survival at 25 to 50 uM incubated for 48 hrs by MTT assay. The following applies: dose 25-50 µM. Type of series: functional, cell-based.
Series [21] relates to KGN. The experiment in a line: Protective effect against cisplatin-induced injury in human KGN cells assessed as increase in serum E2 level at 1 to 10 uM by ELISA. To be noted: dose 1-10 µM. Type of series: functional, cell-based. (In general: An ELISA detects its analyte on a solid surface through an enzyme-linked reagent.)
Series [22] relates to KGN. In words: Cytotoxicity against human KGN cells at 1.25 to 10 uM incubated for 48 hrs by MTT assay. Type of series: toxicity, cell-based. The following applies: dose 1.25-10 µM. (Tetrazolium assays rely on reduction of a dye to a coloured formazan, in cell work by metabolically active cells.)
In series [23] the test system is Rattus norvegicus. In words: Protective effect against cisplatin-induced damage in Wistar rat assessed as increase in organ indices at 50 mg/kg, IG qd for 14 days. Type of series: functional, organism-based. To be noted: time 14.0 day.
Series [24] concerns KGN. The experiment in a line: Protective effect against cisplatin-induced injury in human KGN cells assessed as recovery of cellular suspension at 1 to 10 uM by inverted microscopy. To be noted: dose 1-10 µM. Type of series: functional, cell-based.
Series [25] has as its system Rattus norvegicus. The experiment in a line: Protective effect against cisplatin-induced damage in Wistar rat assessed as decrease in uterine wall thinning at 50 mg/kg, IG qd for 14 days by H and E staining based analysis. Type of series: functional, organism-based. The following applies: time 14.0 day.
Series [26] relates to KGN. The experiment in a line: Inhibition of cisplatin-induced apoptosis in human KGN cells assessed as decrease in Bax expression at 1 to 10 uM by immunoblot analysis. Type of series: functional, cell-based. To be noted: dose 1-10 µM.
Series [27] relates to Rattus norvegicus. The experiment in a line: Protective effect against cisplatin-induced damage in Wistar rat assessed as decrease in atretic follicle numbers in ovaries at 50 mg/kg, IG qd for 14 days by H and E staining based analysis. The following applies: time 14.0 day. Type of series: functional, organism-based.
In series [28] the test system is Rattus norvegicus. In words: Protective effect against cisplatin-induced damage in Wistar rat assessed as increase in sinus follicle numbers in ovaries at 50 mg/kg, IG qd for 14 days by H and E staining based analysis. Type of series: functional, organism-based. The following applies: time 14.0 day.
Series [29] deals with KGN. In words: Protective effect against cisplatin-induced injury in human KGN cells assessed as cell survival rate at 5 uM incubated for 48 hrs by MTT assay (reference value: 65 %). Type of series: functional. The following applies: read-out: Survival.
Series [30] relates to KGN. In words: Protective effect against cisplatin-induced injury in human KGN cells assessed as cell survival at 5 uM incubated for 48 hrs by MTT assay. Type of series: functional, cell-based.
A short description of series [31]: Cytotoxicity against rat NRK cells assessed as cell survival rate at 50 uM incubated for 48 hrs by MTT assay relative to control. Type of series: toxicity, cell-based. To be noted: read-out: Survival.
A short description of series [32]: Cytotoxicity against human MIHA cells assessed as cell survival rate at 50 uM incubated for 48 hrs by MTT assay relative to control. Type of series: toxicity, cell-based. To be noted: read-out: Survival.
Series [33] can be described thus: Cytotoxicity against human PDL cells assessed as cell survival rate at 50 uM incubated for 48 hrs by MTT assay relative to control. The following applies: read-out: Survival. Type of series: toxicity, cell-based.
In series [34] the test system is KGN. The experiment in a line: Protective effect against cisplatin-induced injury in human KGN cells assessed as cell survival rate at 5 uM incubated for 48 hrs by MTT assay (Rvb ~ 60 %). Type of series: functional. The following applies: read-out: Survival.

With `COc1ccc(/C=C2\CCC[C@@]3(C2=O)[C@@H](c2ccc(OC)c(OC)c2)C(C)N[C@@]32C(=O)c3cccc4cccc2c34)cc1OC` (stereo partly specified), the outcome in the series on KGN [1], in the series on Rattus norvegicus [2], in the series on Rattus norvegicus [5], in the series on Rattus norvegicus [7], with KGN [10] and with Rattus norvegicus [11] was Active. Moreover, the outcome with KGN [12], in the series with Rattus norvegicus [14], in the series on Rattus norvegicus [15], with Rattus norvegicus [16], in the series with KGN [20] and with KGN [21] was Active. Besides, the result in the series with Rattus norvegicus [23], in the series with KGN [24], with Rattus norvegicus [25], with Rattus norvegicus [27] and with Rattus norvegicus [28] was Active. The Activity entry with KGN [3] is “Dose-Dependent Effect”; with KGN [6], “Dose-Dependent Effect”; in the series with KGN [17] it was “Dose-Dependent Effect”; in series [19] it was “Non-Toxic”; in the series with KGN [22], “Non-Toxic”. The inhibition entry in the series with KGN [4] and in the series on KGN [26] was “Active” in each case. For the same compound, the inhibition at 5 µM in the series on KGN [8] is 21.1%. The compound further returned an inhibition at 1 µM with KGN [9] of 8.6%. In addition, the outcome in the series on KGN [13] was inactive. In the series with KGN [18], testing at 10 µM gave an inhibition of 27.8%. The viability at 5 µM in the series on KGN [29] was determined as 94%.
On to `COc1cc(/C=C2\CCC[C@@]3(C2=O)[C@@H](c2cc(OC)cc(OC)c2)C(C)N[C@@]32C(=O)c3cccc4cccc2c34)cc(OC)c1` (stereo partly specified), for which the outcome with KGN [20] was Active. In the series on KGN [30], the result was inactive.
As for `CN1C[C@H](c2ccccc2)[C@]2(CCC/C(=C\c3ccccc3)C2=O)[C@]12C(=O)c1cccc3cccc2c13`, the viability at 48 h, 50 µM in [31] is 94%; in series [32] it was 89.5%; in series [33], 97.5%.
As for `CC1N[C@@]2(C(=O)c3cccc4cccc2c34)[C@@]2(CCC/C(=C\c3ccccc3F)C2=O)[C@H]1c1ccccc1F` (stereo partly specified), the outcome with KGN [20] and in the series on KGN [30] was Active.
With `CC1N[C@@]2(C(=O)c3cccc4cccc2c34)[C@@]2(CCC/C(=C\c3ccc(F)cc3)C2=O)[C@H]1c1ccc(F)cc1` (stereo partly specified), the outcome in the series on KGN [20] and in the series with KGN [30] was Active.
As for `CC1N[C@@]2(C(=O)c3cccc4cccc2c34)[C@@]2(CCC/C(=C\c3ccccc3)C2=O)[C@H]1c1ccccc1` (stereo partly specified), the viability at 5 µM in the series on KGN [34] came to 75.3%.
With `COc1ccc(/C=C2\CCC[C@@]3(C2=O)[C@@H](c2ccc(OC)cc2)C(C)N[C@@]32C(=O)c3cccc4cccc2c34)cc1` (stereo partly specified), the result with KGN [20] was Active. Further, in the series on KGN [30], the result was inactive.
